The source of these data is ChEMBL document CHEMBL5634141 (Eur J Med Chem, 2023).

Common to all, as to type: functional
Holding throughout (conditions): read-out: Activity

The test system of one test is NCI-H358. Kind of test: Antiproliferative activity against human NCI-H358 cells expressing KRAS G12C mutant assessed as relative cell viability at 200 nM incubated for 72 hrs by CCK-8 assay.
The next test concerns MIA PaCa-2. Put plainly: Antiproliferative activity against human MIA PaCa-2 cells expressing KRAS G12C mutant assessed as relative cell viability at 200 nM incubated for 72 hrs by CCK-8 assay.
In a further test the test system is NCI-H23. Put plainly: Antiproliferative activity against human NCI-H23 cells expressing KRAS G12C mutant assessed as relative cell viability at 200 nM incubated for 72 hrs by CCK-8 assay. A general note: Formazan colour is commonly taken as a measure of viable cells.
For another test, the system named is Calu-1. Kind of test: Antiproliferative activity against human Calu-1 cells expressing KRAS G12C mutant assessed as relative cell viability at 200 nM incubated for 72 hrs by CCK-8 assay.
Another test deals with SW837. Kind of test: Antiproliferative activity against human SW837 cells expressing KRAS G12C mutant assessed as relative cell viability at 200 nM incubated for 72 hrs by CCK-8 assay.

The structures appear in SMILES notation.

In the case of `C[C@@H](Oc1cc(-c2cnn(C3CCNCC3)c2)cnc1N)c1c(Cl)ccc(F)c1Cl` [CRIZOTINIB], the viability at 0.2 µM is 0.82% with NCI-H358; 0.79% with MIA PaCa-2; 0.81% with NCI-H23; 0.87% in the test with Calu-1; 0.77% with SW837.
